Test results reported in ChEMBL document CHEMBL3991601, “The target landscape of clinical kinase drugs” (Science, 2017).
The source made the active and inactive calls.

Tests used:
[1] = target: T1, Phosphatidylinositol 5-phosphate 4-kinase type-2 alpha (Homo sapiens, UniProt P48426)
T1 sequence (P48426 whole entry): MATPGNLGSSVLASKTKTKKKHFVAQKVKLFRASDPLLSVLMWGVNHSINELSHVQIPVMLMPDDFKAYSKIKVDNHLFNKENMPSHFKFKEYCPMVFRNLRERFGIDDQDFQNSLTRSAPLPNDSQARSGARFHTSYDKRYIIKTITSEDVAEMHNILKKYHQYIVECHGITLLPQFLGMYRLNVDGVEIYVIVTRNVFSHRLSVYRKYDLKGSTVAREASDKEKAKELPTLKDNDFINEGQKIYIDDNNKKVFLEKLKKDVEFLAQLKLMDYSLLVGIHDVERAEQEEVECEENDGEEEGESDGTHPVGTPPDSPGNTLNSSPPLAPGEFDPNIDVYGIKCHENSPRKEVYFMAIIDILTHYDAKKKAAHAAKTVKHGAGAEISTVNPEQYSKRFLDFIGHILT

[2] = target: T2, Dual specificity mitogen-activated protein kinase kinase 6 (Homo sapiens, UniProt P52564)
T2 sequence (P52564 whole entry): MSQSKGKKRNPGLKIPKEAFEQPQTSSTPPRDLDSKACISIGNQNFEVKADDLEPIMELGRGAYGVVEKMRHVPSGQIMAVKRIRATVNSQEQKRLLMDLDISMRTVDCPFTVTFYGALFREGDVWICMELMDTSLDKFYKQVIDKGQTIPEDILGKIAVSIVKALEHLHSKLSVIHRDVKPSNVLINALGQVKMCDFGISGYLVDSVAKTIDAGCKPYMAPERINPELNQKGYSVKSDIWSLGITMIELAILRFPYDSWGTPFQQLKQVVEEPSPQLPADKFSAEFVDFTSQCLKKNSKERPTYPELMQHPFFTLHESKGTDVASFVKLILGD

[3] = target: ATP-dependent RNA helicase DDX3X (Homo sapiens, UniProt O00571)
[4] = target: T3, Peroxisomal acyl-coenzyme A oxidase 3 (Homo sapiens, UniProt O15254)
T3 sequence (O15254 whole entry): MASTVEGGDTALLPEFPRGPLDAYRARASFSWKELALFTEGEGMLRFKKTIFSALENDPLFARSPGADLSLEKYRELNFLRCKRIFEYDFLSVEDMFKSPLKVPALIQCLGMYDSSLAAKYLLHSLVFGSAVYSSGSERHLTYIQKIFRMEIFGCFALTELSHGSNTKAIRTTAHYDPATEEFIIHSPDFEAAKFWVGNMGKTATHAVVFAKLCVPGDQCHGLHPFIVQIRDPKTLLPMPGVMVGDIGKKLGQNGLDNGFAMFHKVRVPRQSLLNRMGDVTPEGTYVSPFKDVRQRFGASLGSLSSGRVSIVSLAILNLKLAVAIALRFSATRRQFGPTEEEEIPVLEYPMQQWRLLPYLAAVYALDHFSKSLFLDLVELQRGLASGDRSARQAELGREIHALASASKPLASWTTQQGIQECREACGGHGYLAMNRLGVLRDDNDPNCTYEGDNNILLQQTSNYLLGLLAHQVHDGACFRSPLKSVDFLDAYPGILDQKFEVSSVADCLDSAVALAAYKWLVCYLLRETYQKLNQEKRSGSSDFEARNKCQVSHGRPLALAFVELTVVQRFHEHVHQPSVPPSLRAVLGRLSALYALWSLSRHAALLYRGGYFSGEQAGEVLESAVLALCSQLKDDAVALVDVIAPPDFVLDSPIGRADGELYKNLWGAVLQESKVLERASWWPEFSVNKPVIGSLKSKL

[5] = target: T4, Mitogen-activated protein kinase kinase kinase kinase 3 (Homo sapiens, UniProt Q8IVH8)
T4 sequence (Q8IVH8 whole entry): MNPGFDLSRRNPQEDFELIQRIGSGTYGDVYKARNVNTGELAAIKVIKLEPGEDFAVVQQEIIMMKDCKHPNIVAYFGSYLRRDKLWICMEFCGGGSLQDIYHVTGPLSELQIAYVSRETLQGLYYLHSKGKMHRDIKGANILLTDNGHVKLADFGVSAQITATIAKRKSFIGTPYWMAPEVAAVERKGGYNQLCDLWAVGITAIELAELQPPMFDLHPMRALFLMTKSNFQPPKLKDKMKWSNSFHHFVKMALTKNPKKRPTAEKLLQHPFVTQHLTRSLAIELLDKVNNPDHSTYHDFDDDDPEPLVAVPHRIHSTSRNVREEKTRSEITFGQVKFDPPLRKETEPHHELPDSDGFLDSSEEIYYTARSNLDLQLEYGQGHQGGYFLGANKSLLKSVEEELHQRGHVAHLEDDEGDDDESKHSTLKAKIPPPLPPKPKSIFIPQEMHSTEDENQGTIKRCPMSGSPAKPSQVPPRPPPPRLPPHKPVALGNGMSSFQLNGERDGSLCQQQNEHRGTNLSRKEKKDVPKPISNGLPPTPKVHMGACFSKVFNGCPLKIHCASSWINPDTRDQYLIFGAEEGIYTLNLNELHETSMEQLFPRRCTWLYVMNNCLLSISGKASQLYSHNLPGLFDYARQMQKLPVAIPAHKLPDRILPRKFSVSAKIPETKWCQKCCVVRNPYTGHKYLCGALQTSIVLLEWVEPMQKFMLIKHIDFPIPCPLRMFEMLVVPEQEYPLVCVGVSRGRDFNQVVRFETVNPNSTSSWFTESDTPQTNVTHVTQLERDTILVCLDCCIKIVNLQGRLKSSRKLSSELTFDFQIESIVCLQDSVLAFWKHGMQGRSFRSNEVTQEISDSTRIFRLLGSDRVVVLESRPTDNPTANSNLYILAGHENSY

[6] = target: Mitogen-activated protein kinase 10 (Homo sapiens, UniProt P53779)
[7] = target: Protein kinase C alpha type (Homo sapiens, UniProt P17252)
DNA topoisomerase 2-beta = DNA topoisomerase 2-beta (Homo sapiens, UniProt Q02880)
ADP/ATP translocase 3 = target: T5, ADP/ATP translocase 3 (Homo sapiens, UniProt P12236)
T5 sequence (P12236 whole entry): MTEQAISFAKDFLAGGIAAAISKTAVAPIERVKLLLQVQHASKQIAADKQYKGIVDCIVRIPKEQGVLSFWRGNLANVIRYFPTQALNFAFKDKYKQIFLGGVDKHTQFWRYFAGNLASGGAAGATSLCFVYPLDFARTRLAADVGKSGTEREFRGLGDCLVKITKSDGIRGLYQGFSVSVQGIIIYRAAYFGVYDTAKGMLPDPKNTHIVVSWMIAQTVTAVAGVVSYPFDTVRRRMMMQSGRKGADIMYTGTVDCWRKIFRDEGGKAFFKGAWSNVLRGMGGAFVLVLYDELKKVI
Further: in the data inactive means no Kd found up to 30 µM.

Sequence of ATP-dependent RNA helicase DDX3X (O00571 whole entry): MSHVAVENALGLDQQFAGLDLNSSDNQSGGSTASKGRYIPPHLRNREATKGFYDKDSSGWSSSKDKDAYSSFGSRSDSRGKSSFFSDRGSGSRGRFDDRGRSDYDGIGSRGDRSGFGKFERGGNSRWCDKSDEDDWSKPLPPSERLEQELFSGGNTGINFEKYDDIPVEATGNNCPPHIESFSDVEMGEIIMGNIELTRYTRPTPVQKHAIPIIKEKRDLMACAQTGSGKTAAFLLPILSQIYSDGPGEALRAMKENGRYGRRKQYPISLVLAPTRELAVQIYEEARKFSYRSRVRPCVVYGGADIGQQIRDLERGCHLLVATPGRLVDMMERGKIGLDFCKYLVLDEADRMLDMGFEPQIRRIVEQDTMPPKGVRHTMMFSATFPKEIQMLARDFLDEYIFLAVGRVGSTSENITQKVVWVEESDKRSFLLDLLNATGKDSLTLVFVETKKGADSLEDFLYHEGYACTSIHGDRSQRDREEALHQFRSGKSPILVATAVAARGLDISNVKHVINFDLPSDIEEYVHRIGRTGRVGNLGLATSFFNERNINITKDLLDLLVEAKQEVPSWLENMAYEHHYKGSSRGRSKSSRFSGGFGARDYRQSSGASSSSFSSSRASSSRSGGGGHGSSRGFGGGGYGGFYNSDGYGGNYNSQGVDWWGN
Sequence of DNA topoisomerase 2-beta (Q02880 whole entry): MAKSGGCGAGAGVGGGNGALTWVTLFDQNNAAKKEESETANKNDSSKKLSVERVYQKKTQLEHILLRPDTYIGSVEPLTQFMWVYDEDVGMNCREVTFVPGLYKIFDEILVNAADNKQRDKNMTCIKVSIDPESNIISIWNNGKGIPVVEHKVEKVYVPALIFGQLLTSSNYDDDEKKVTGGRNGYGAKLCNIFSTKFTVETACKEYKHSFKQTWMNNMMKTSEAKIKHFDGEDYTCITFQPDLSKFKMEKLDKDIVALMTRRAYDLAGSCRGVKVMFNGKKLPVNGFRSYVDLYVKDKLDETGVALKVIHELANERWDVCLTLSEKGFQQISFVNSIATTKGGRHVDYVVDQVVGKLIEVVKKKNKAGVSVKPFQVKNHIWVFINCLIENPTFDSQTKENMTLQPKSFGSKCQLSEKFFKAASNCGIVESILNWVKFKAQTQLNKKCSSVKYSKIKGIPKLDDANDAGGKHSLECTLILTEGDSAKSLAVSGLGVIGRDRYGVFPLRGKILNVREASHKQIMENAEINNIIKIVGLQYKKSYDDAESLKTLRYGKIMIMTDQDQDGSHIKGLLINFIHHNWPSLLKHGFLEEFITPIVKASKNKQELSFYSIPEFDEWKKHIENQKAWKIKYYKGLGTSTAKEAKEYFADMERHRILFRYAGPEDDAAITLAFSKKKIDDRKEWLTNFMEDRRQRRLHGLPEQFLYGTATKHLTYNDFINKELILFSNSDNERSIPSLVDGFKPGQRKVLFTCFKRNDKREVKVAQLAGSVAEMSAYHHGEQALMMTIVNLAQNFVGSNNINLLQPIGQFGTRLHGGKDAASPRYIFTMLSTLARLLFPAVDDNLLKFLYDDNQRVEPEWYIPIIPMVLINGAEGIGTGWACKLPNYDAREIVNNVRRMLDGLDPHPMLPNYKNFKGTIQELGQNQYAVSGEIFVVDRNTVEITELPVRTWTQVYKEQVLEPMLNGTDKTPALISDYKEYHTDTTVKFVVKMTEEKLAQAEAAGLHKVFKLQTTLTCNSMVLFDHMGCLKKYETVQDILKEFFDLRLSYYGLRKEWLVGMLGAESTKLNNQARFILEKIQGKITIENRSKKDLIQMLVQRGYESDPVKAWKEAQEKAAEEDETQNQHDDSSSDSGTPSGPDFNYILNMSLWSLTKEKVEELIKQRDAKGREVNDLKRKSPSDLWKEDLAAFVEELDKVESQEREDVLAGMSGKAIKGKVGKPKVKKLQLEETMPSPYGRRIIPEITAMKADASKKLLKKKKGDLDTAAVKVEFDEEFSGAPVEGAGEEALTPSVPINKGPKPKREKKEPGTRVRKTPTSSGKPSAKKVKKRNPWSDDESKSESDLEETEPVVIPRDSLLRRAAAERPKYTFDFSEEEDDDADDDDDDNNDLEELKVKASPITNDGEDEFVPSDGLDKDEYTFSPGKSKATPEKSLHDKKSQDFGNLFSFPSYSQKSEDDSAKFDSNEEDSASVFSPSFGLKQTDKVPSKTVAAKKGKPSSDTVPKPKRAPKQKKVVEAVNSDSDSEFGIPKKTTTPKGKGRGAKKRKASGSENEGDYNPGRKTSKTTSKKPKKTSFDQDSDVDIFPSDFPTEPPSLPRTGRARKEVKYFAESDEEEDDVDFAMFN
Sequence of Mitogen-activated protein kinase 10 (P53779 whole entry): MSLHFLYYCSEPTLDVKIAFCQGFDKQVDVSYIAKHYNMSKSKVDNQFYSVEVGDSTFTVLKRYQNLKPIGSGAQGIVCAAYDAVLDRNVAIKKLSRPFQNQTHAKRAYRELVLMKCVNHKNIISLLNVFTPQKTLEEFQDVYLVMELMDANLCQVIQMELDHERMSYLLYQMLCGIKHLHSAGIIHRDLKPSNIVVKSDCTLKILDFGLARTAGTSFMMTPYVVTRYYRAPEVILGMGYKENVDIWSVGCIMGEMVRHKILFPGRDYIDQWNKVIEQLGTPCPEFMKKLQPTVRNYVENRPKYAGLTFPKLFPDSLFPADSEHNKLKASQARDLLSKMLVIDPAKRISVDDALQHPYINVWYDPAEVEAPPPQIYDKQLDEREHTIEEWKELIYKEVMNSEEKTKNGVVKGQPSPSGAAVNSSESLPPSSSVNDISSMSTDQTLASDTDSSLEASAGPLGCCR

SMILES | Kd [1] | Kd [2] | Kd [3] | Kd [4] | Kd [5] | Kd [6] | Kd [7] | Kd (DNA topoisomerase 2-beta) | Kd (ADP/ATP translocase 3)
COc1cc2nccc(Oc3ccc(NC(=O)C4(C(=O)Nc5ccc(F)cc5)CC4)cc3)c2cc1OC [CABOZANTINIB] | > 30 µM (inactive) | > 30 µM (inactive) | > 30 µM (inactive) | > 30 µM (inactive) | > 30 µM (inactive) | > 30 µM (inactive) | > 30 µM (inactive) | > 30 µM (inactive) | > 30 µM (inactive)
O=C(Nc1ccc(OC(F)(F)F)cc1)c1sccc1NCc1ccnc2ccccc12 [OSI-930] | > 30 µM (inactive) | > 30 µM (inactive) | > 30 µM (inactive) | > 30 µM (inactive) | > 30 µM (inactive) | > 30 µM (inactive) | > 30 µM (inactive) | > 30 µM (inactive) | > 30 µM (inactive)
C=CCn1c(=O)c2cnc(Nc3ccc(N4CCN(C)CC4)cc3)nc2n1-c1cccc(C(C)(C)O)n1 [ADAVOSERTIB] |  | > 30 µM (inactive) | > 30 µM (inactive) | > 30 µM (inactive) | > 30 µM (inactive) | > 30 µM (inactive) | > 30 µM (inactive) | > 30 µM (inactive) | > 30 µM (inactive)
CNC(=O)c1cc(COc2nnc(Nc3ccc(Cl)cc3)c3ccoc23)ccn1 [TELATINIB] |  | > 30 µM (inactive) | > 30 µM (inactive) | > 30 µM (inactive) | > 30 µM (inactive) | > 30 µM (inactive) | > 30 µM (inactive) | > 30 µM (inactive) | > 30 µM (inactive)
CC(C)(O)CC(=O)NCCn1ccc2ncnc(Nc3ccc(Oc4cccc(C(F)(F)F)c4)c(Cl)c3)c21 [TAK-285] |  | > 30 µM (inactive) | > 30 µM (inactive) | > 30 µM (inactive) | > 30 µM (inactive) | > 30 µM (inactive) | > 30 µM (inactive) | > 30 µM (inactive) | > 30 µM (inactive)
NC[C@@](O)(c1ccc(Cl)cc1)c1ccc(-c2cn[nH]c2)cc1 [AT-13148] | > 30 µM (inactive) | > 30 µM (inactive) | > 30 µM (inactive) | > 30 µM (inactive) | > 30 µM (inactive) | > 30 µM (inactive) | > 30 µM (inactive) | > 30 µM (inactive) | 
Cc1c(NC(=O)OC[C@@H]2COCCN2)cn2ncnc(Nc3ccc4c(cnn4Cc4cccc(F)c4)c3)c12 [AC-480] |  | > 30 µM (inactive) | > 30 µM (inactive) | > 30 µM (inactive) | > 30 µM (inactive) | > 30 µM (inactive) | > 30 µM (inactive) | > 30 µM (inactive) | > 30 µM (inactive)
C=CCN(/C=C1/C(=O)O[C@H](COC)[C@@]2(C)C1=C(O)C(=O)C1=C2[C@H](OC(C)=O)C[C@]2(C)C(=O)CC[C@@H]12)CC=C [SONOLISIB] |  | > 30 µM (inactive) | > 30 µM (inactive) | > 30 µM (inactive) | > 30 µM (inactive) | > 30 µM (inactive) | > 30 µM (inactive) | > 30 µM (inactive) | > 30 µM (inactive)
C=CC(=O)Nc1cccc(Nc2nc(Nc3ccc(N4CCN(C(C)=O)CC4)cc3OC)ncc2C(F)(F)F)c1 [ROCILETINIB] |  | > 30 µM (inactive) | > 30 µM (inactive) | > 30 µM (inactive) | > 30 µM (inactive) | > 30 µM (inactive) | > 30 µM (inactive) | > 30 µM (inactive) | > 30 µM (inactive)
O=C(O)c1ccc2c(c1)nc(Nc1cccc(Cl)c1)c1ccncc12 [SILMITASERTIB] |  | > 30 µM (inactive) | > 30 µM (inactive) | > 30 µM (inactive) | > 30 µM (inactive) | > 30 µM (inactive) | > 30 µM (inactive) | > 30 µM (inactive) | > 30 µM (inactive)
CCc1nc(C(N)=O)c(Nc2ccc(N3CCC(N4CCN(C)CC4)CC3)c(OC)c2)nc1NC1CCOCC1 [GILTERITINIB] | > 30 µM (inactive) | 1.89 µM (active) | > 30 µM (inactive) | > 30 µM (inactive) |  | 0.512 µM (active) |  | > 30 µM (inactive) | 0.495 µM
C#Cc1cccc(Nc2ncnc3cc4c(cc23)OCCOCCOCCO4)c1 [ICOTINIB] |  | > 30 µM (inactive) | > 30 µM (inactive) | > 30 µM (inactive) | > 30 µM (inactive) | > 30 µM (inactive) | > 30 µM (inactive) | > 30 µM (inactive) | > 30 µM (inactive)
O=C(NC[C@H](O)CO)c1ccncc1Nc1ccc(I)cc1F [PIMASERTIB] |  | > 30 µM (inactive) | > 30 µM (inactive) | > 30 µM (inactive) | > 30 µM (inactive) | > 30 µM (inactive) | > 30 µM (inactive) | > 30 µM (inactive) | > 30 µM (inactive)
COc1ccc(-c2ccc3ncc4c(c3c2)n(-c2ccc(N3CCNCC3)c(C(F)(F)F)c2)c(=O)n4C)cn1 [BGT-226 FREE BASE] |  | > 30 µM (inactive) | > 30 µM (inactive) | > 30 µM (inactive) | > 30 µM (inactive) | > 30 µM (inactive) | > 30 µM (inactive) | > 30 µM (inactive) | > 30 µM (inactive)
O=S(=O)(c1cccc2c(O)nccc12)N1CCCNCC1 [HYDROXYFASUDIL] | > 30 µM (inactive) | > 30 µM (inactive) | > 30 µM (inactive) | > 30 µM (inactive) | > 30 µM (inactive) | > 30 µM (inactive) |  | > 30 µM (inactive) | > 30 µM (inactive)
C[C@]1(O)C[C@@H](c2nc(-c3ccc4ccc(-c5ccccc5)nc4c3)c3c(N)nccn32)C1 [LINSITINIB] | > 30 µM (inactive) | > 30 µM (inactive) | > 30 µM (inactive) | > 30 µM (inactive) | 15.4 µM (active) | > 30 µM (inactive) |  | > 30 µM (inactive) | > 30 µM (inactive)
